Results taken from patent US6448006B1, “Methods and compositions for reducing bacterial tolerance to antibacterials disinfectants and organic solvents” (priority 1997, dated 2002).
In brackets after ≈: the same amount, converted by molar mass. Where two headings read alike, the source gives them in different places.

Key:
[1] = tested on: E. coli strain WEC and its Pine-Sol-selected mutant; assay: Antibiotic susceptibility by discs (diameter of clearing); assay type: cell-based
Experimental: (§1) Mutants resistant to Pine-Sol/pine oil were obtained from stationary phase LB broth cultures of E. coli strain “WEC” (wild type strain 15-5068 from Carolina Biological Supply Co., Burlington, N.C.) and AG100 (George and Levy, J. Bacteriol. 155:531-540, 1983), at 30° C. on nutrient agar (NP 3.5GP) or LB agar with 2-3 days incubation in a variety of ways: using a 6 mm disc method; plating cells on plates or gradient plates (Curiale and Levy, J. Bacteriol. 151:209-215, 1982), containing PINE-SOL™ (product of Clorox Co., Oakland, Calif.) or pine oil itself.
(§2) Antibiotic susceptibility was measured at 30° C. using antibiotic susceptibility discs (Carolina Biological), gradient plates with the drug in the top agar (Curiale and Levy, 1982) or agar dilution plates (concentration steps of 1.5 fold; inocula of 10^5 cells/5 μl spot). While there was a variability of resistance phenotypes, all Pine-Sol/pine oil-selected mutants were also multidrug resistant (Table 1A, B).

[2] = tested on: E. coli strains (AG100, Pine-Sol/pine oil mutants, Mar mutants); assay: Susceptibility by gradient plates (MIC); assay type: cell-based; conditions: Escherichia coli
Experimental: as §1, §2

[3] = read-out: Susceptibility by gradient plates (MIC), strain AG102, Mar mutant of AG100, selected on Tc (2 steps)
[4] = read-out: Susceptibility by gradient plates (MIC), strain AP1, mutant of AG100 selected by pine oil on disc
[5] = read-out: Susceptibility by gradient plates (MIC), strain AP5, mutant of AG100 selected as for AP1
[6] = read-out: Susceptibility by gradient plates (MIC), strain APS3, mutant of AG100 selected on Pine-Sol gradient (0-1.5%)
[7] = strain AG100, wildtype, read-out: Susceptibility by gradient plates (MIC)
[8] = strain HH180, deletion of 39 kb including mar locus, host MM294, read-out: Susceptibility by gradient plates (MIC)
[9] = strain HH188, HH180 containing pHHM183 (mar+), read-out: Susceptibility by gradient plates (MIC)
[10] = strain HH191, HH180 containing pHHM191 (marR2), read-out: Susceptibility by gradient plates (MIC)
[11] = strain HH193, HH180 containing pHHM193 (marR5), read-out: Susceptibility by gradient plates (MIC)

| SMILES | Susceptibility by discs; diameter of clearing ([1]; strain WEC, wild type, 30° C.) | Susceptibility by discs; diameter of clearing ([1]; {}) | MIC [2, 3] | MIC [2, 4] | MIC [2, 5] | MIC [2, 6] | MIC [2, 7] | MIC [2, 8] | MIC [2, 9] | MIC [2, 10] | MIC [2, 11] |
| --- | --- | --- | --- | --- | --- | --- | --- | --- | --- | --- | --- |
| CC1(C)S[C@@H]2[C@H](NC(=O)[C@H](N)c3ccccc3)C(=O)N2[C@H]1C(=O)O [Ap, ampicillin] | 22 mm | 12 mm | 85 µg/mL (≈ 243 µM) | 3 µg/mL (≈ 8.59 µM) | 7.2 µg/mL (≈ 20.6 µM) | 7.7 µg/mL (≈ 22 µM) | < 1.2 µg/mL | < 0.6 µg/mL | < 1 µg/mL | 5.4 µg/mL (≈ 15.5 µM) | 5.9 µg/mL (≈ 16.9 µM) |
| O=C(N[C@H](CO)[C@H](O)c1ccc([N+](=O)[O-])cc1)C(Cl)Cl [Cm, chloramphenicol] | 27 mm | 11 mm | > 35 µg/mL | 7.8 µg/mL (≈ 24.1 µM) | 21 µg/mL (≈ 65 µM) | > 35 µg/mL | 2.6 µg/mL (≈ 8.05 µM) |  |  |  |  |
| CCn1cc(C(=O)O)c(=O)c2ccc(C)nc21 [Nal, nalidixic acid] |  |  | 14 µg/mL (≈ 60.3 µM) | 9.7 µg/mL (≈ 41.8 µM) | 7.5 µg/mL (≈ 32.3 µM) | 8.6 µg/mL (≈ 37 µM) | 1.7 µg/mL (≈ 7.32 µM) | < 1.8 µg/mL | 3.7 µg/mL (≈ 15.9 µM) | 9.1 µg/mL (≈ 39.2 µM) | 10.9 µg/mL (≈ 46.9 µM) |
| CN(C)[C@@H]1C(O)=C(C(N)=O)C(=O)[C@@]2(O)C(O)=C3C(=O)c4c(O)cccc4[C@@](C)(O)[C@H]3C[C@@H]12 [Tc, tetracycline] | 21 mm | 14 mm | > 12.8 µg/mL | 2.4 µg/mL (≈ 5.4 µM) | 4.5 µg/mL (≈ 10.1 µM) | 5.3 µg/mL (≈ 11.9 µM) | 1.8 µg/mL (≈ 4.05 µM) | < 0.6 µg/mL | 1.2 µg/mL (≈ 2.7 µM) | 8.2 µg/mL (≈ 18.5 µM) | > 11.4 µg/mL |
